Assay results as given in patent publication US20060069132A1, “Azolecarboxamide herbicides” (priority 2004, published 2006).

How the values were obtained:
Experiment in all cases: Test C postemergence herbicide test
blackgrass = type: in vivo, Alopecurus myosuroides; conditions: for Blackgrass plant response rating: 500 g ai/ha
Outline: (§1)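 Scoring by eye, 12–14 days post-treatment, greenhouse-held plants vs. controls; 0 no effect, 100 complete control. Sprayed at 1–4 leaves (2–18 cm); paddy barnyardgrass at 2 leaves, flooded.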

downy bromegrass = type: in vivo, Bromus tectorum
Outline: as §1

winter barley = type: in vivo, Hordeum vulgare; conditions: for Barley, Winter plant response rating: 500 g ai/ha, scale 0 to 100
Outline: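 Ratings (0 = no effect, 100 = complete control) come from visual comparison with untreated plants after 12 to 14 days in the greenhouse. Treatment was postemergence at the 1- to 4-leaf stage (2–18 cm), or at the 2-leaf stage for the flooded paddy barnyardgrass.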

canarygrass = type: in vivo, Phalaris minor
Outline: as §1

Italian ryegrass = type: in vivo, Lolium multiflorum
Outline: as §1

[1] = Postemergence, 250 g ai/ha, scale 0 to 100, 0 no effect, 100 complete control
[2] = postemergence, 125 g ai/ha, scale 0 to 100
[3] = postemergence, 62 g ai/ha, scale 0 to 100
[4] = Postemergence, 500 g ai/ha, scale 0 to 100, 0 no effect, 100 complete control
[5] = Postemergence, 125 g ai/ha, scale 0 to 100, 0 no effect, 100 complete control
[6] = postemergence, 62 g ai/ha, scale 0 to 100 (0 no effect, 100 complete control)

In the case of `CCn1nc(C(C)(C)C)cc1C(=O)Nc1cc(OC(F)(F)F)ccc1F` [Compound 338], the “Blackgrass plant response rating” value (blackgrass; Postemergence, scale 0 to 100) is reported as 65, the “Plant response rating, Blackgrass” value (blackgrass; [1]) is reported as 50 and the “Plant response rating, Blackgrass” value (blackgrass; [2]) is reported as 45. The “Plant response rating, Blackgrass” value (blackgrass; [3]) was 40, the “Plant response rating, Bromegrass, Downy” value (downy bromegrass; [1]) was 40 and the “Plant response rating, Bromegrass, Downy” value (downy bromegrass; [4]) was 45. The “Plant response rating, Bromegrass, Downy” value (downy bromegrass; [2]) was 35, the “Plant response rating, Bromegrass, Downy” value (downy bromegrass; [3]) was 30 and the “Barley, Winter plant response rating” value (winter barley; Postemergence) was 40. For the same compound, the “Plant response rating, Barley, Winter” value (winter barley; [5]) was 30, the “Plant response rating, Barley, Winter” value (winter barley; [1]) was 35 and the “Plant response rating, Barley, Winter” value (winter barley; [6]) was 20. For the same compound, the “Plant response rating, Canarygrass” value (canarygrass; [1]) was 40, the “Plant response rating, Canarygrass” value (canarygrass; [4]) was 50 and the “Plant response rating, Canarygrass” value (canarygrass; [2]) was 25. For the same compound, the “Plant response rating, Canarygrass” value (canarygrass; [3]) was 20, the “Plant response rating, Ryegrass, Italian” value (Italian ryegrass; [1]) was 50 and the “Plant response rating, Ryegrass, Italian” value (Italian ryegrass; [4]) was 60. The “Plant response rating, Ryegrass, Italian” value (Italian ryegrass; [2]) was 30 and the “Plant response rating, Ryegrass, Italian” value (Italian ryegrass; [3]) was 25.

For `CCn1nc(C(C)(C)C)cc1C(=O)Nc1cccc(OS(=O)(=O)CC)c1` [Compound 408], the “Blackgrass plant response rating” value (blackgrass; Postemergence, scale 0 to 100) was 70, the “Plant response rating, Blackgrass” value (blackgrass; [1]) was 65 and the “Plant response rating, Blackgrass” value (blackgrass; [2]) was 50. For the same compound, the “Plant response rating, Blackgrass” value (blackgrass; [3]) was 40, the “Plant response rating, Bromegrass, Downy” value (downy bromegrass; [1]) was 55 and the “Plant response rating, Bromegrass, Downy” value (downy bromegrass; [4]) was 55. The “Plant response rating, Bromegrass, Downy” value (downy bromegrass; [2]) was 45, the “Plant response rating, Bromegrass, Downy” value (downy bromegrass; [3]) was 40 and the “Barley, Winter plant response rating” value (winter barley; Postemergence) was 40. The “Plant response rating, Barley, Winter” value (winter barley; [5]) was 30, the “Plant response rating, Barley, Winter” value (winter barley; [1]) was 35 and the “Plant response rating, Barley, Winter” value (winter barley; [6]) was 30. For the same compound, the “Plant response rating, Canarygrass” value (canarygrass; [1]) was 40, the “Plant response rating, Canarygrass” value (canarygrass; [4]) was 45 and the “Plant response rating, Canarygrass” value (canarygrass; [2]) was 30. For the same compound, the “Plant response rating, Canarygrass” value (canarygrass; [3]) was 20, the “Plant response rating, Ryegrass, Italian” value (Italian ryegrass; [4]) was 70 and the “Plant response rating, Ryegrass, Italian” value (Italian ryegrass; [2]) was 45. The “Plant response rating, Ryegrass, Italian” value (Italian ryegrass; [3]) was 40.
